# From the kinase profiling compilation of Christmann-Franck et al. (2016)
# Tests used:
# Experiment in all cases: KINOMEscan competition binding
# Conditions in all cases: compound 10.0 µM
# PRKD3 (human) = PRKD3 (human) (UniProt O94806)
# CDK14 (human) = CDK14 (human) (UniProt O94921)
# RPS6KA3 KD1 (human) = RPS6KA3 KD1 (human) (UniProt P51812)
# BMPR2 (human) = BMPR2 (human) (UniProt Q13873)
# BRSK2 (human) = BRSK2 (human) (UniProt Q8IWQ3)
# NEK2 (human) = NEK2 (human) (UniProt P51955)
# RPS6KA5 KD1 (human) = RPS6KA5 KD1 (human) (UniProt O75582)
# CAMK1D (human) = CAMK1D (human) (UniProt Q8IU85)
# BMPR1B (human) = BMPR1B (human) (UniProt O00238)
# CDK15 (human) = CDK15 (human) (UniProt Q96Q40)
# LYN (human) = LYN (human) (UniProt P07948)
# MAPK9 (human) = MAPK9 (human) (UniProt P45984)
# BRSK1 (human) = BRSK1 (human) (UniProt Q8TDC3)
# BMPR1A (human) = BMPR1A (human) (UniProt P36894)
# PIK3CB (human) = PIK3CB (human) (UniProt P42338)
# CDK7 (human) = CDK7 (human) (UniProt P50613)
# NTRK3 (human) = NTRK3 (human) (UniProt Q16288)
# MAP3K7 (human) = MAP3K7 (human) (UniProt O43318)
# [1] = target: TYK2 JH2 pseudokinase (human) (UniProt P29597)
# BLK (human) = BLK (human) (UniProt P51451)
# PLK1 (human) = PLK1 (human) (UniProt P53350)
# LIMK1 (human) = LIMK1 (human) (UniProt P53667)
# STK16 (human) = STK16 (human) (UniProt O75716)
# FGFR2 (human) = FGFR2 (human) (UniProt P21802)
# [2] = tested on: FLT3 (human), P36888 [ITD]
# [3] = target: JAK1 JH1 catalytic (human) (UniProt P23458)
# STK11 (human) = STK11 (human) (UniProt Q15831)
# TSSK1B (human) = TSSK1B (human) (UniProt Q9BXA7)
# STK4 (human) = STK4 (human) (UniProt Q13043)
# MAP3K9 (human) = MAP3K9 (human) (UniProt P80192)
# MARK3 (human) = MARK3 (human) (UniProt P27448)
# MAP4K1 (human) = MAP4K1 (human) (UniProt Q92918)
# IKBKE (human) = IKBKE (human) (UniProt Q14164)
# LATS1 (human) = LATS1 (human) (UniProt O95835)
# YES1 (human) = YES1 (human) (UniProt P07947)
# FLT3 (human) = FLT3 (human) (UniProt P36888)
# CDK5 (human) = CDK5 (human) (UniProt Q00535)
# CDK9 (human) = CDK9 (human) (UniProt P50750)
# DCLK1 (human) = DCLK1 (human) (UniProt O15075)
# GSK3B (human) = GSK3B (human) (UniProt P49841)
# Sequence of BMPR2 (human) (Q13873 whole entry, looked up): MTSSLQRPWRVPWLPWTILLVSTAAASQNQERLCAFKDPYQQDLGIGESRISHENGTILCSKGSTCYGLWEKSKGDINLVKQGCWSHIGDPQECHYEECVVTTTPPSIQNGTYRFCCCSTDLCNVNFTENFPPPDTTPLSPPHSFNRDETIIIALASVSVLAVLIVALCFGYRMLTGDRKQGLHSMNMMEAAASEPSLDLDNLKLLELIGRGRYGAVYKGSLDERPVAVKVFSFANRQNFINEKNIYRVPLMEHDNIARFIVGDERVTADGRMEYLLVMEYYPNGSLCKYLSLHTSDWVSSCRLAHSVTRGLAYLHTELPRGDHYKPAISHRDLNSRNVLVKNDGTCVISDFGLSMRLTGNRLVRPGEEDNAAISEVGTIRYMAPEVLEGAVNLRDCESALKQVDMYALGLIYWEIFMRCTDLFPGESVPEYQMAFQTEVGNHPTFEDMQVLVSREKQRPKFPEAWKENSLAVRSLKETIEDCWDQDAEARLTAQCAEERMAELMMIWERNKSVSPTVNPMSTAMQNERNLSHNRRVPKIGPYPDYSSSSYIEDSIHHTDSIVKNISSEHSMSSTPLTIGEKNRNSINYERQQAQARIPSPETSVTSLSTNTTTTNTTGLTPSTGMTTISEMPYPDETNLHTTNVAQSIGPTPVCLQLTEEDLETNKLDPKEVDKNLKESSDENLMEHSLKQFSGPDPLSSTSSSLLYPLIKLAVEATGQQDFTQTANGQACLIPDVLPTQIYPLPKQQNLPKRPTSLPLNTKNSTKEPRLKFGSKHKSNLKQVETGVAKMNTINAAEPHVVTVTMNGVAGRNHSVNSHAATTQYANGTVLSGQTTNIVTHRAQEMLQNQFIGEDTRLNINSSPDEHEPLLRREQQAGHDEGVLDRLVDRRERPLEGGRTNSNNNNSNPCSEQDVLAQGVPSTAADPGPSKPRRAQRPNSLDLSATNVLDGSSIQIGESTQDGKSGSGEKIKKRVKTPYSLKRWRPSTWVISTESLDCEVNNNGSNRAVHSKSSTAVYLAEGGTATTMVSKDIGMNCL
# Sequence of MAP3K7 (human) (O43318 whole entry, looked up): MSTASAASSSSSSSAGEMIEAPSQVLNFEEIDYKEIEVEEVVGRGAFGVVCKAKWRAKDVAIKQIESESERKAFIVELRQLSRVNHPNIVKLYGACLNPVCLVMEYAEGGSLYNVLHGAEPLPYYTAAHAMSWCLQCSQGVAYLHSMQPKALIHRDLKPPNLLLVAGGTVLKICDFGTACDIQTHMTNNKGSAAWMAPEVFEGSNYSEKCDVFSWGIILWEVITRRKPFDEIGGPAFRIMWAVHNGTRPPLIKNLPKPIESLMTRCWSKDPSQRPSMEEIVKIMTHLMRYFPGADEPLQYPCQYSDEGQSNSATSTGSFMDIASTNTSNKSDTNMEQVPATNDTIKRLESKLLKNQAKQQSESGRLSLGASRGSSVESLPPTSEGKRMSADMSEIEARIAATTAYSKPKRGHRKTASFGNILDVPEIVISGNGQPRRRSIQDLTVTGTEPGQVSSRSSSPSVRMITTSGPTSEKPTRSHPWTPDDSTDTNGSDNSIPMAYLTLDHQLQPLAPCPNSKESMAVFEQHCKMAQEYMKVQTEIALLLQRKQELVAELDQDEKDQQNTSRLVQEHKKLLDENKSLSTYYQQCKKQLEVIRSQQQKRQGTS
# Sequence of MAPK9 (human) (P45984 whole entry, looked up): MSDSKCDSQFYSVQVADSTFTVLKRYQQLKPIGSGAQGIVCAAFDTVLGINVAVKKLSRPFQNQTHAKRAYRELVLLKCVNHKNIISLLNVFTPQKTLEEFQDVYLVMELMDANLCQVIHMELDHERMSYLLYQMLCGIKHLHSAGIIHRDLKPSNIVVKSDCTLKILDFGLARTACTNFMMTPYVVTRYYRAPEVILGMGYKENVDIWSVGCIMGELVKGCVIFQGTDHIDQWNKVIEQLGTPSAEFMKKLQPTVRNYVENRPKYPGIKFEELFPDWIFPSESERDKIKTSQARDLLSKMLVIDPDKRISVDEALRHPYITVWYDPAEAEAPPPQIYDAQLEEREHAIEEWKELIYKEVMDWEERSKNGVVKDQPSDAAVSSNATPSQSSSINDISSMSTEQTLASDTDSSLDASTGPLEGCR
# Sequence of NEK2 (human) (P51955 whole entry, looked up): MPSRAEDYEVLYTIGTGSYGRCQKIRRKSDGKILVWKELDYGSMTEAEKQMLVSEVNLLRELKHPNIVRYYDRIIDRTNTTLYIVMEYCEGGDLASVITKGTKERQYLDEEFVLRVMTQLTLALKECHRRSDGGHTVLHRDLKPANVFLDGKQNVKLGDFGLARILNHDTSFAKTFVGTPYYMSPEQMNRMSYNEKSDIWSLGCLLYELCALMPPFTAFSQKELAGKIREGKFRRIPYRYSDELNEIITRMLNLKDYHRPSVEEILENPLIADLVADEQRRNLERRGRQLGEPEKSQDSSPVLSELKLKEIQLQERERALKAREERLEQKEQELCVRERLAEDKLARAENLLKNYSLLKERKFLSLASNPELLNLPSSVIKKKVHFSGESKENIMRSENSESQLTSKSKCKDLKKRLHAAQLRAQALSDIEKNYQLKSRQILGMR
# Sequence of MAP4K1 (human) (Q92918 whole entry, looked up): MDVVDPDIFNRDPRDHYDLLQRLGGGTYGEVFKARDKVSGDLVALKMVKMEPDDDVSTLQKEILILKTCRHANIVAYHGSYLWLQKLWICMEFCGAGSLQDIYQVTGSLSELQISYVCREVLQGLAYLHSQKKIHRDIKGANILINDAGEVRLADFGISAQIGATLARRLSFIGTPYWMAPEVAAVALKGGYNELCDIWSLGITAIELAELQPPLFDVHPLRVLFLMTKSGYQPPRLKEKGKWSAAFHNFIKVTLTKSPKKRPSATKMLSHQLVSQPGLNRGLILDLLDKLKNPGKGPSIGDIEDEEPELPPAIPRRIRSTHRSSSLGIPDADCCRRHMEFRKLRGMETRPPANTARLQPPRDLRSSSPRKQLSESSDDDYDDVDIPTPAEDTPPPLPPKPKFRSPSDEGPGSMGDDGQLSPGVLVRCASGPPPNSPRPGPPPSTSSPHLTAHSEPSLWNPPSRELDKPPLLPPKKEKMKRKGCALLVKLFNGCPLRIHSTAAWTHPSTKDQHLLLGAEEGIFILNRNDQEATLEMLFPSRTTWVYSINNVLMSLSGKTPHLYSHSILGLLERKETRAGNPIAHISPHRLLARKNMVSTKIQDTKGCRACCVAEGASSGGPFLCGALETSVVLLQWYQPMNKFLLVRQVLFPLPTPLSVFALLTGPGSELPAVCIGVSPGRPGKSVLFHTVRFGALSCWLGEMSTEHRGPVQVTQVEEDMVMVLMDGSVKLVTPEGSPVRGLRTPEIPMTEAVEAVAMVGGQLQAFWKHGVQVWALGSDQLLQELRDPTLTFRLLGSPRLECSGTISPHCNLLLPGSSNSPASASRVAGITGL
# Sequence of LATS1 (human) (O95835 whole entry, looked up): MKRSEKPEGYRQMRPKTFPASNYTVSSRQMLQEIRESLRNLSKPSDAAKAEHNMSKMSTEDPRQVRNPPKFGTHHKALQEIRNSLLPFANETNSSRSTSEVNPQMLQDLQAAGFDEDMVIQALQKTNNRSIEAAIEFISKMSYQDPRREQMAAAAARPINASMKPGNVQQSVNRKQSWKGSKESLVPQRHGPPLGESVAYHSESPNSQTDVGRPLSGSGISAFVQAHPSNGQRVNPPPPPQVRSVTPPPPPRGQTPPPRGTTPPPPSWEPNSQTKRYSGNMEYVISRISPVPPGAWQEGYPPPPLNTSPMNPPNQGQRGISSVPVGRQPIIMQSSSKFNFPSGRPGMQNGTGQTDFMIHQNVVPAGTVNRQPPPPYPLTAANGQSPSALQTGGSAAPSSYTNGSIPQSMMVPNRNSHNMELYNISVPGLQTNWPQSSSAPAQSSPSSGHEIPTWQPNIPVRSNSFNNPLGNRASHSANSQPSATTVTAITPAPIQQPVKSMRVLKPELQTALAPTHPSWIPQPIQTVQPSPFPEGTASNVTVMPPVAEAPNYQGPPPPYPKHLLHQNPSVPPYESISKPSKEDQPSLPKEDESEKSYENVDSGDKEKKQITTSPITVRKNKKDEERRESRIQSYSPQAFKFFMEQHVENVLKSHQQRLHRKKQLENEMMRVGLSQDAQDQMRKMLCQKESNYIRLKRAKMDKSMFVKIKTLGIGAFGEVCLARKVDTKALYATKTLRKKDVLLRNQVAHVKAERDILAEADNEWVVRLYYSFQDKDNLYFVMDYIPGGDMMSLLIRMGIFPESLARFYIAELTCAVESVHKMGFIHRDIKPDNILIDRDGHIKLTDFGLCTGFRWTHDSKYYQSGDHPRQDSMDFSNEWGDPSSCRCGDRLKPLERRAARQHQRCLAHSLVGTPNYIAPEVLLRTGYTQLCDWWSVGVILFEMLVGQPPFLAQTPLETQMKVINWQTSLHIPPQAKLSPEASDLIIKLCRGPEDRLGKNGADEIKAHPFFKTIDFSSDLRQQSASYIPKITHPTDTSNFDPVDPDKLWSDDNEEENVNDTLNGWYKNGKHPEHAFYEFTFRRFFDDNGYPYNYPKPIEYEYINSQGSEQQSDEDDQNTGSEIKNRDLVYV
# Sequence of CDK14 (human) (O94921 whole entry, looked up): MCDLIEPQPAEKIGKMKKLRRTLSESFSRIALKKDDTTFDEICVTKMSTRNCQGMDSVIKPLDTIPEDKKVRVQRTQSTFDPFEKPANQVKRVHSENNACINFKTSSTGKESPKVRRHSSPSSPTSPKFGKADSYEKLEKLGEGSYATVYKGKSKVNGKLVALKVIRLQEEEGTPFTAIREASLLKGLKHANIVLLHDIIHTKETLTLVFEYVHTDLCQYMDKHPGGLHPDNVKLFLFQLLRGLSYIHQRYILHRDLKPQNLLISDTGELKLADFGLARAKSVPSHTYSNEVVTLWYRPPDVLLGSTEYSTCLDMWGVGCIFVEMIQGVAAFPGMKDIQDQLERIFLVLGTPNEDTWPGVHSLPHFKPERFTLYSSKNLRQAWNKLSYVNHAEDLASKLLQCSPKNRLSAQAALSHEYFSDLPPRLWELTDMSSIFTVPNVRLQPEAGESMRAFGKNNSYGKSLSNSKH
SMILES,"kinase still bound, per cent of control (PRKD3 (human))","kinase still bound, per cent of control (CDK14 (human))","kinase still bound, per cent of control (RPS6KA3 KD1 (human))","kinase still bound, per cent of control (BMPR2 (human))","kinase still bound, per cent of control (BRSK2 (human))","kinase still bound, per cent of control (NEK2 (human))","kinase still bound, per cent of control (RPS6KA5 KD1 (human))","kinase still bound, per cent of control (BMPR1B (human))","kinase still bound, per cent of control (CDK15 (human))","kinase still bound, per cent of control (LYN (human))","kinase still bound, per cent of control (MAPK9 (human))","kinase still bound, per cent of control (BRSK1 (human))","kinase still bound, per cent of control (BMPR1A (human))","kinase still bound, per cent of control (CDK7 (human))","kinase still bound, per cent of control (NTRK3 (human))","kinase still bound, per cent of control (MAP3K7 (human))","kinase still bound, per cent of control [1]","kinase still bound, per cent of control (BLK (human))","kinase still bound, per cent of control (PLK1 (human))","kinase still bound, per cent of control (LIMK1 (human))",other results
O=C(O)c1ccc(Nc2ncc3c(n2)-c2ccc(Cl)cc2C(c2c(F)cccc2F)=NC3)cc1,96%,100%,28%,26%,100%,73%,99%,86%,100%,25%,57%,100%,36%,77%,65%,80%,100%,0.7%,100%,85%,"kinase still bound, per cent of control (CAMK1D (human)): 98%; kinase still bound, per cent of control (PIK3CB (human)): 100%; kinase still bound, per cent of control (STK16 (human)): 30%; kinase still bound, per cent of control (FGFR2 (human)): 7.7%; kinase still bound, per cent of control [2]: 87%; kinase still bound, per cent of control [3]: 90%; kinase still bound, per cent of control (STK11 (human)): 92%; kinase still bound, per cent of control (TSSK1B (human)): 90%; kinase still bound, per cent of control (STK4 (human)): 85%; kinase still bound, per cent of control (MAP3K9 (human)): 70%; kinase still bound, per cent of control (MARK3 (human)): 100%; kinase still bound, per cent of control (MAP4K1 (human)): 71%; kinase still bound, per cent of control (IKBKE (human)): 68%; kinase still bound, per cent of control (LATS1 (human)): 98%; kinase still bound, per cent of control (YES1 (human)): 3.9%; kinase still bound, per cent of control (FLT3 (human)): 80%; kinase still bound, per cent of control (CDK5 (human)): 100%"
Cc1ccc2nc(NCCN)c3ncc(C)n3c2c1,41%,100%,100%,96%,100%,100%,100%,71%,100%,100%,44%,90%,32%,6.3%,100%,100%,15%,100%,100%,100%,"kinase still bound, per cent of control (CDK9 (human)): 35%; kinase still bound, per cent of control (CAMK1D (human)): 69%; kinase still bound, per cent of control (DCLK1 (human)): 84%; kinase still bound, per cent of control (GSK3B (human)): 68%; kinase still bound, per cent of control (PIK3CB (human)): 88%; kinase still bound, per cent of control (STK16 (human)): 100%; kinase still bound, per cent of control (FGFR2 (human)): 100%; kinase still bound, per cent of control [3]: 100%; kinase still bound, per cent of control (TSSK1B (human)): 100%; kinase still bound, per cent of control (STK4 (human)): 100%; kinase still bound, per cent of control (MAP3K9 (human)): 100%; kinase still bound, per cent of control (MARK3 (human)): 100%; kinase still bound, per cent of control (MAP4K1 (human)): 81%; kinase still bound, per cent of control (IKBKE (human)): 100%; kinase still bound, per cent of control (LATS1 (human)): 100%; kinase still bound, per cent of control (YES1 (human)): 100%; kinase still bound, per cent of control (FLT3 (human)): 100%; kinase still bound, per cent of control (CDK5 (human)): 100%"
CCOc1cc2ncc(C#N)c(Nc3ccc(OCc4ccccn4)c(Cl)c3)c2cc1NC(=O)/C=C/CN(C)C,65%,97%,89%,78%,100%,12%,100%,81%,98%,34%,52%,95%,89%,68%,78%,90%,99%,3%,57%,100%,"kinase still bound, per cent of control (CDK9 (human)): 94%; kinase still bound, per cent of control (DCLK1 (human)): 100%; kinase still bound, per cent of control (PIK3CB (human)): 100%; kinase still bound, per cent of control (STK16 (human)): 96%; kinase still bound, per cent of control (FGFR2 (human)): 96%; kinase still bound, per cent of control [2]: 86%; kinase still bound, per cent of control [3]: 83%; kinase still bound, per cent of control (STK11 (human)): 94%; kinase still bound, per cent of control (TSSK1B (human)): 100%; kinase still bound, per cent of control (STK4 (human)): 17%; kinase still bound, per cent of control (MAP3K9 (human)): 84%; kinase still bound, per cent of control (MAP4K1 (human)): 45%; kinase still bound, per cent of control (IKBKE (human)): 100%; kinase still bound, per cent of control (LATS1 (human)): 90%; kinase still bound, per cent of control (YES1 (human)): 26%; kinase still bound, per cent of control (FLT3 (human)): 100%; kinase still bound, per cent of control (CDK5 (human)): 100%"
Cc1cc([C@@H](C)Nc2ccccc2C(=O)O)c2nc(N3CCOCC3)cc(=O)n2c1,100%,100%,91%,85%,100%,71%,81%,69%,100%,99%,66%,99%,97%,97%,98%,89%,100%,99%,100%,100%,"kinase still bound, per cent of control (CDK9 (human)): 100%; kinase still bound, per cent of control (CAMK1D (human)): 100%; kinase still bound, per cent of control (DCLK1 (human)): 78%; kinase still bound, per cent of control (GSK3B (human)): 100%; kinase still bound, per cent of control (STK16 (human)): 77%; kinase still bound, per cent of control [2]: 53%; kinase still bound, per cent of control [3]: 100%; kinase still bound, per cent of control (STK11 (human)): 98%; kinase still bound, per cent of control (TSSK1B (human)): 100%; kinase still bound, per cent of control (STK4 (human)): 95%; kinase still bound, per cent of control (MAP3K9 (human)): 91%; kinase still bound, per cent of control (MARK3 (human)): 89%; kinase still bound, per cent of control (MAP4K1 (human)): 100%; kinase still bound, per cent of control (IKBKE (human)): 85%; kinase still bound, per cent of control (LATS1 (human)): 100%; kinase still bound, per cent of control (YES1 (human)): 100%; kinase still bound, per cent of control (FLT3 (human)): 13%; kinase still bound, per cent of control (CDK5 (human)): 100%"
